From patent US8993595B2, “Macrocyclic serine protease inhibitors” (priority 2009, dated 2015)

Tests used:
clinical = details: human, in vivo; for Cmax / Tmax: 400 mg per day; for half-life: T1/2, 400 mg per day
[1] = human plasma
in vivo = details: for Mean concentration, Heart / Mean concentration, Liver / Mean concentration, Plasma / Kp: single 2 mg/kg oral dose; for AUC(0-inf) / C24 h / F / AUC(0-t) / Vd / clearance / half-life / Cmax / Tmax / Kp: 2 mg/kg
Procedure: Male mice (3/time point) and monkeys (3/dose group) were given a single IV or PO dose of compound 52 in a PEG-based vehicle. The compound was quantified in liver (LLOQ=25 ng/g) and heart (LLOQ=50 ng/g) tissue (mice only) and in plasma samples (LLOQ=5 ng/mL) after liquid-liquid extraction by HPLC-MS/MS. Six healthy volunteers were given a single 200 mg dose of the compound using the selected tablet formulation and plasma concentrations were similarly determined (LLOQ=2 ng/mL). PK parameters were calculated using WinNonlin.

[2] = system: S. typhimurium and E. coli; experiment: Bacterial mutation test; assay type: cell-based; details: up to 5,000 μg/plate, with and without S9
Procedure: The potential for compound 52 to induce mutations in a bacterial system (S. typhimurium and E. coli—at concentrations up to 5,000 μg/plate), to induce chromosomal aberrations in cultures of human peripheral blood lymphocytes (at concentrations up to 84 μg/mL), and to induce clastogenic and/or aneugenic activity in CD-1 mice (at oral doses up to 2,000 mg/kg) was evaluated. The two in vitro studies were performed with and without the addition of a mammalian metabolic activation system (rat liver S9 subcellular fraction).

NS3-4A (Con1) = NS3-4A (Con1) (Hepatitis C virus genotype 1b, UniProt Q9WMX2); experiment: Binding kinetics by surface plasmon resonance; parameters: species or system HCV
Procedure: The binding kinetics of compound 52 to NS3-4A (Con1) was also determined using surface plasmon resonance.

[3] = system: HCV Con1 subgenomic replicon in Huh-7 cells (GS4.1 cells); experiment: HCV Replicon Assay (NS4A ELISA); assay type: cell-based; details: Hepatitis C virus, 72 hr
Procedure: Huh-7 cells containing HCV Con1 subgenomic replicon (GS4.1 cells) were grown in Dulbecco's Modified Eagle Medium (DMEM) supplemented with 10% fetal bovine serum (FBS), 2 mM L-glutamine, 110 mg/L sodium pyruvate, 1× non-essential amino acids, 100 U/mL penicillin-streptomycin, and 0.5 mg/mL G418 (Invitrogen). For dose-response testing, the cells were seeded in 96-well plates at 7.5×10^3 cells/well in a volume of 50 μL, and incubated at 37° C./5% CO2. Three hours after plating, 50 μL of ten 2-fold serial dilutions of compounds (highest concentration, 75 μM) were added, and cell cultures were incubated at 37° C./5% CO2 in the presence of 0.5% DMSO. Alternatively, compounds were tested at a single concentration of 15 μM. In all cases, Huh-7 cells lacking the HCV replicon served as negative control. The cells were incubated in the presence of compounds for 72 hr after which they were monitored for expression of the NS4A protein by enzyme-linked immunosorbent assay (ELISA). For this, the plates were then fixed for 1 min with acetone/methanol (1:1, v/v), washed twice with phosphate-buffered saline (PBS), 0.1% Tween 20, blocked for 1 hr at room temperature with TNE buffer containing 10% FBS and then incubated for 2 hr at 37° C. with the anti-NS4A mouse monoclonal antibody A-236 (ViroGen) diluted in the same buffer. After washing three times with PBS, 0.1% Tween 20, the cells were incubated 1 hr at 37° C. with anti-mouse immunoglobulin G-peroxidase conjugate in TNE, 10% FBS. After washing as described above, the reaction was developed with O-phenylenediamine (Zymed). The reaction was stopped after 30 min with 2 N H2SO4, and absorbance was read at 492 nm using Sunrise Tecan spectrophotometer. EC50 values were determined from the % inhibition versus concentration data using a sigmoidal non-linear regression analysis based on four parameters with Tecan Magellan software.

[4] = system: D-1a cell line (genotype 1a replicon selected with 25 nM, D168A); experiment: Extent of resistance after selection, D-1a; assay type: cell-based, HCV; details: selecting conc. 25 nM
Procedure: Replicon cells (genotype 1a or 1b) were treated with various concentrations of compound 52 in the presence of G418. Treatment-emergent genotypic changes were identified by population sequencing of NS3 (both protease and helicase regions). The activity of compound 52 and other compounds was evaluated by NS5A western blot after selection or luciferase assay during and after selection.

HCV NS3-NS4A protease = biological target: T1, HCV NS3-NS4A protease (Hepatitis C virus genotype 1a, UniProt P27958); experiment: HCV Protease Assay (SensoLyte 620 HCV Protease Assay kit); assay type: biochemical; details: 1.2 nM HCV NS3-NS4A protease, 60 min, room temperature
T1 construct: HCV NS3-NS4A protease, which was obtained according to Taremi et al; made in house
Procedure: Measurement of the inhibitory effect of compounds on HCV protease activity was performed with the SensoLyte™ 620 HCV Protease Assay kit from AnaSpec, Inc. (San Jose, Calif.) under conditions described by the supplier using 1.2 nM HCV NS3-NS4A protease, which was obtained according to Taremi et al. (Protein Science, 1998, 7, 2143-2149). The compounds were tested at a variety of concentrations in assay buffer containing a final DMSO concentration of 5%. Reactions were allowed to proceed for 60 min at room temperature and fluorescence measurements were recorded with a Tecan Infinity Spectrofluorimeter. The IC50 values were determined from the percent inhibition versus concentration data using a sigmoidal non-linear regression analysis based on four parameters with Tecan Magellan software.

Compound `COc1ccc2c(O[C@H]3CCN4C(=O)N(C)CCCC/C=C\[C@@H]5C[C@@]5(C(=O)NS(=O)(=O)C5(C)CC5)NC(=O)[C@@H]4C3)cc(-c3nc(C(F)(F)F)cs3)nc2c1C` [Compound 52, 1-methyl-cyclopropanesulfonic acid{(Z)-(1S,4R,6S,18S)-18-[7-methoxy-8-methyl-2-(4-trifluoromethyl-thiazol-2-yl)-quinolin-4-yloxy]-13-methyl-2,14-dioxo-3,13,15-triaza-tricyclo[13.4.0.0*4,6*]nonadec-7-ene-4-carbonyl}amide] has a Cmax (clinical; PK Day 1) of 1150 ± 381 ng/mL, a Cmax (clinical; PK Day 3) of 1370 ± 345 ng/mL and a half-life (clinical; PK Day 1) of 12 ± 2 h. For the same compound, the half-life (clinical; PK Day 3) was 31 ± 8 h, the Tmax (clinical; PK Day 1) was 3 h and the Tmax (clinical; PK Day 3) was 3.5 h. For the same compound, the “protein bound in plasma” value [1] was 99.6%, the “Mean concentration, Heart” value (in vivo; 2 hr) was 144 ng/g and the “Mean concentration, Liver” value (in vivo; 2 hr) was 4410 ng/g. For the same compound, the “Mean concentration, Plasma” value (in vivo; 2 hr) was 174 ng/mL, the “Mean concentration, Heart” value (in vivo; 6 hr) was 93.0 ng/g and the “Mean concentration, Liver” value (in vivo; 6 hr) was 3540 ng/g. The “Mean concentration, Plasma” value (in vivo; 6 hr) was 121 ng/mL, the “Mean concentration, Liver” value (in vivo; 24 hr) was 57.6 ng/g and the “Mean concentration, Plasma” value (in vivo; 24 hr) was 1.45 ng/mL. The “Mean concentration, Heart” value (in vivo; 24 hr, BLQ = below 50 ng/g) was “BLQ^2”, the AUC(0-inf) (in vivo; cynomolgus monkey, po) was 8920 ± 2190 ng·h/mL and the C24 h (in vivo; cynomolgus monkey, po) was 81 ± 47 ng/mL. For the same compound, the F (in vivo; cynomolgus monkey, po) was 107 ± 40%, the AUC(0-t) (in vivo; male, CD-1, mouse, in vivo, iv) was 4060 ng·h/mL and the C24 h (in vivo; male, CD-1, mouse, in vivo, iv) was 7.9 ± 11 ng/mL. It also gave a Vd (in vivo; male, CD-1, mouse, in vivo, iv) of 4.4 L/kg, a clearance (in vivo; male, CD-1, mouse, in vivo, iv) of 8 mL/min/kg and a half-life (in vivo; male, CD-1, mouse, in vivo, iv) of 6.3 h. The AUC(0-t) (in vivo; male, CD-1, mouse, in vivo, po) was 1410 ng·h/mL, the C24 h (in vivo; male, CD-1, mouse, in vivo, po) was 1.5 ± 0.3 ng/mL and the Cmax (in vivo; male, CD-1, mouse, in vivo, po) was 174 ng/mL. It also gave an F (in vivo; male, CD-1, mouse, in vivo, po) of 34.7%, a Tmax (in vivo; male, CD-1, mouse, in vivo, po) of 2 h and a Kp (in vivo; male, CD-1, mouse, in vivo, po, Mean concentration ratio Heart/Plasma, 2 hr) of 0.79. For the same compound, the Kp (in vivo; male, CD-1, mouse, in vivo, po, Mean concentration ratio Heart/Plasma, 6 hr) was 0.78, the Kp (in vivo; male, CD-1, mouse, in vivo, po, Mean concentration ratio Liver/Plasma, 2 hr) was 27 and the Kp (in vivo; male, CD-1, mouse, in vivo, po, Mean concentration ratio Liver/Plasma, 6 hr) was 30. For the same compound, the Kp (in vivo; male, CD-1, mouse, in vivo, po, Mean concentration ratio Liver/Plasma, 24 hr) was 39, the AUC(0-inf) (in vivo; male, cynomolgus monkey, iv) was 9580 ± 1420 ng·h/mL and the C24 h (in vivo; male, cynomolgus monkey, iv) was 66 ± 26 ng/mL. For the same compound, the Vd (in vivo; male, cynomolgus monkey, iv) was 3.5 ± 0.5 L/kg, the clearance (in vivo; male, cynomolgus monkey, iv) was 3.83 mL/min/kg and the half-life (in vivo; male, cynomolgus monkey, iv) was 10.3 ± 1 h. For the same compound, the Cmax (in vivo; male, cynomolgus monkey, po) was 1030 ± 270 ng/mL, the Tmax (in vivo; male, cynomolgus monkey, po) was 1 h and the half-life (in vivo; male, cynomolgus monkey, po) was 7.6 ± 2 h. The “clearance relative to hepatic blood flow” value (in vivo; mouse) was −9 % of hepatic blood flow, the “genotoxicity, bacterial mutation test” value [2] was “no genotoxicity” and the kon (NS3-4A (Con1); read-out: association rate) was 27000 M⁻¹ s⁻¹. For the same compound, the koff (NS3-4A (Con1); read-out: dissociation rate) was 2.1e-05 s⁻¹, the Kd (NS3-4A (Con1); read-out: equilibrium constant) was 0.0008 µM and the EC50 [3] was less than 1 µM. The Fold-Change [4] was greater than 2750 and the IC50 (HCV NS3-NS4A protease) was less than 1 µM.
